Data taken from the CheMixHub viscosity set.

Assay: xn = mol fraction of the nth substance listed

CCCCN + CCCCN(CCCC)CCCC
viscosity [mPa·s], 101 kPa
Conditions	x2 = 0.0993	x2 = 0.193	x2 = 0.3946	x2 = 0.4948	x2 = 0.5888	x2 = 0.7738	x2 = 0.8887
303.15 K	0.5014	0.566	0.7175	0.7961	0.8701	1.013	1.094
313.15 K	0.4423	0.4968	0.6233	0.688	0.7498	0.8682	0.9377

CCCC(=O)OCC(COC(=O)CCC)OC(=O)CCC + CCCCO
viscosity [mPa·s], 101.33 kPa
Conditions	x1 = 0.1	x1 = 0.2	x1 = 0.3	x1 = 0.4	x1 = 0.5	x1 = 0.6	x1 = 0.7	x1 = 0.8	x1 = 0.9
298 K	2.61	3	3.46	3.99	4.58	5.23	5.96	6.73	7.66
303 K	2.31	2.64	3.03	3.48	3.97	4.54	5.14	5.77	6.54
308 K	2.04	2.33	2.68	3.06	3.45	3.95	4.45	5.01	5.64
313 K	1.83	2.08	2.38	2.7	3.06	3.48	3.9	4.37	4.89

CCCCCCCCCC(=O)OCC + CCCCO
viscosity [mPa·s], 100 kPa
Conditions	x1 = 0.1006	x1 = 0.2001	x1 = 0.3011	x1 = 0.3996	x1 = 0.4999	x1 = 0.6021	x1 = 0.7009	x1 = 0.7986	x1 = 0.9001
293.15 K	2.504	2.299	2.212	2.15	2.125	2.139	2.168	2.2	2.258
298.15 K	2.217	2.037	1.967	1.916	1.914	1.921	1.962	1.984	2.047
303.15 K	1.977	1.825	1.769	1.733	1.727	1.738	1.777	1.798	1.854
308.15 K	1.764	1.643	1.596	1.568	1.569	1.581	1.608	1.639	1.687
313.15 K	1.581	1.488	1.455	1.433	1.431	1.444	1.469	1.501	1.543
318.15 K	1.424	1.344	1.322	1.305	1.31	1.324	1.355	1.379	1.42

CCCCN + CCCCOC(C)=O
303.15 K, 101 kPa
Conditions	viscosity [mPa·s]
x1 = 0.21	0.6407
x1 = 0.2909	0.637
x1 = 0.4108	0.6349
x1 = 0.5598	0.6248
x1 = 0.64	0.6218
x1 = 0.7026	0.6038
x1 = 0.8413	0.5869
x1 = 0.9148	0.5794

O=C(O)C(Cl)(Cl)Cl + CCCCOC(C)=O
323.15 K, 101 kPa
Conditions	viscosity [mPa·s]
x2 = 0.104	4.361
x2 = 0.187	3.749
x2 = 0.3013	2.85
x2 = 0.379	2.406
x2 = 0.494	1.798
x2 = 0.584	1.419
x2 = 0.7106	0.996
x2 = 0.7901	0.81
x2 = 0.929	0.588

CCCCCCCCCC(=O)OCC + CCCO
viscosity [mPa·s], 100 kPa
Conditions	x1 = 0.1002	x1 = 0.2005	x1 = 0.2999	x1 = 0.4	x1 = 0.4999	x1 = 0.601	x1 = 0.7	x1 = 0.7998	x1 = 0.9011
293.15 K	2.031	1.963	1.956	1.986	2.013	2.057	2.123	2.176	2.25
298.15 K	1.809	1.759	1.757	1.786	1.814	1.854	1.912	1.97	2.029
303.15 K	1.618	1.586	1.587	1.611	1.642	1.681	1.74	1.78	1.845
308.15 K	1.456	1.433	1.438	1.461	1.493	1.53	1.578	1.623	1.681
313.15 K	1.315	1.299	1.309	1.333	1.364	1.403	1.446	1.486	1.538
318.15 K	1.192	1.183	1.196	1.22	1.25	1.285	1.33	1.368	1.415

CCCCN + CCCO
viscosity [mPa·s]
Conditions	298.15 K	303.15 K	313.15 K
100 kPa, x2 = 0.1	0.534	–	–
100 kPa, x2 = 0.198	0.612	–	–
100 kPa, x2 = 0.301	0.711	–	–
100 kPa, x2 = 0.417	0.846	–	–
100 kPa, x2 = 0.501	0.965	–	–
100 kPa, x2 = 0.6	1.117	–	–
100 kPa, x2 = 0.695	1.273	–	–
100 kPa, x2 = 0.786	1.451	–	–
100 kPa, x2 = 0.925	1.76	–	–
101.33 kPa, x1 = 0.095	–	1.64	1.281
101.33 kPa, x1 = 0.1888	–	1.48	1.159
101.33 kPa, x1 = 0.2913	–	1.286	1.018
101.33 kPa, x1 = 0.3804	–	1.129	0.9048
101.33 kPa, x1 = 0.5153	–	0.9113	0.7453
101.33 kPa, x1 = 0.6163	–	0.7686	0.6425
101.33 kPa, x1 = 0.7142	–	0.6509	0.5578
101.33 kPa, x1 = 0.788	–	0.5832	0.5009
101.33 kPa, x1 = 0.9022	–	0.4992	0.4349

CC[N+](=O)[O-] + CCCO
viscosity [mPa·s], 101.33 kPa
Conditions	293.15 K	303.15 K	313.15 K
x2 = 0.05	0.686	0.609	0.544
x2 = 0.1	0.683	0.605	0.539
x2 = 0.1499	0.69	0.607	0.539
x2 = 0.2001	0.702	0.617	0.547
x2 = 0.25	0.72	0.629	0.554
x2 = 0.3	0.748	0.647	0.567
x2 = 0.35	0.776	0.667	0.581
x2 = 0.4	0.808	0.694	0.609
x2 = 0.45	0.848	0.724	0.623
x2 = 0.5	0.898	0.758	0.655
x2 = 0.55	0.951	0.8	0.681
x2 = 0.6	1.016	0.852	0.718
x2 = 0.65	1.085	0.902	0.756
x2 = 0.7	1.17	0.967	0.808
x2 = 0.75	1.282	1.043	0.881
x2 = 0.8	1.391	1.133	0.947
x2 = 0.85	1.539	1.243	1.035
x2 = 0.9	1.717	1.377	1.125
x2 = 0.95	1.945	1.559	1.239

Cc1ccncc1 + CCCO
298.15 K, 101.33 kPa
Conditions	viscosity [mPa·s]
x2 = 0.091	0.9024
x2 = 0.2095	0.9381
x2 = 0.3419	1.007
x2 = 0.4177	1.071
x2 = 0.5662	1.168
x2 = 0.7017	1.327
x2 = 0.7646	1.405
x2 = 0.8291	1.52
x2 = 0.867	1.591

O=[N+]([O-])c1ccc(O)cc1 + CCN(CC)CC
298.16 K, 101 kPa
Conditions	viscosity [mPa·s]
x1 = 0.5818	294.3
x1 = 0.5939	366.2
x1 = 0.6179	606.8
x1 = 0.6393	908.7
x1 = 0.6718	2449
x1 = 0.6969	3733
x1 = 0.7221	6669
x1 = 0.739	7410
x1 = 0.7731	8242
x1 = 0.7883	7522
x1 = 0.8008	6867
x1 = 0.8106	6269

CCC(=O)OCCN1CCNCC1 + CCO
Conditions	viscosity [mPa·s]
293.15 K, 100 kPa, x1 = 0.1216	37.45
